{"source": "patent US8304000B2", "about": "“Process for preparing water extract of cinnamon” (Beijing Tang-An Nutrition & Healthcare Products Co. Ltd., priority 2010, dated 2012)", "origin": "cited, not measured here"}
{"compound": "O=c1ccc2ccccc2o1", "note": "[Coumarin, 1-benzopyran-2-one]", "values": [{"measurement": "solubility in alcohol", "setting": "alcohol", "result": "readily soluble"}, {"measurement": "solubility in water", "setting": "water", "result": "poorly soluble"}]}
